Reference: PubChem BioAssay (NCI)
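These data come from cells grown in 96-well plates and exposed to compound for 48 hours at five concentrations. TGI is the concentration that stops growth completely.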

Tested on: SN12K1 renal
Test: DTP human tumour cell line panel, 48 h

## CCOC(=O)c1ccc(N[C@@H]2c3cc4c(cc3C(c3cc(OC)c(O)c(OC)c3)[C@H]3C(=O)OCC32)OCO4)cc1 (stereo partly specified)
  TGI: 1440 nM
